Where a name gives a salt, the structure may show the parent alone.
Legend:
[1] = tested on: animal model with heart failure (ligation of left anterior descending coronary artery); assay: anti-heart failure activity (short term, acute) in animal model (rat); assay type: in vivo; conditions: for mAP / mLVP: 7 days before and 3 days after ligation, measured Day 11; for improvement effect on mAP and mLVP / effect on lowering blood pressure compared with untreated animal group: short-term administration, rat
Procedure: The animal model with heart failure using ligation of left anterior descending coronary artery was prepared, the therapeutic drug to the modeling animal was administrated by pre-gavage, once per day for 7 continuous days, and was continuously administrated for three days after successful modeling.
SD male rats aged 6-week old;
Pre-test preparation: All animals were divided into 5 groups by randomized blocks, 6 rats in each group, and the animals were acclimated for 3 days before test treatment; Experimental process: Therapeutic drug was given to the test animals by pre-gavage, once per day for 7 continuous days. Operation was conducted on Day 8, the animals were anesthetized, trachea was connected to a respirator, electrocardiograph (ECG) was connected for real-time recording, thoracic cavity was opened between the 3rd and 4th ribs, left anterior descending coronary artery was ligated, ST segment elevation of ECG indicated successful ligation, the thoracic cavity was closed, and the skin was sutured;
The animals were anesthetized on Day 11, ECG was measured, and then arterial pressure and left ventricular pressure were measured by carotid artery intubation.

[2] = tested on: animal model with heart failure (ligation of left anterior descending coronary artery); assay: anti-heart failure activity (long term, chronic) in animal model (rat); assay type: in vivo
[3] = singly used as medication; cited from earlier work
[4] = Hygroscopicity (plain sample) at RH 75% and RH 85%; assay type: physicochemical
[5] = Flowability (angle of repose, bulk density); assay type: physicochemical
[6] = tested on: patients with heart failure; conditions: compared with the enalapril treatment group; cited from earlier work
[7] = 30 mg/kg gavage once per day for 4 weeks
[8] = 68 mg/kg gavage once per day for 4 weeks
[9] = samples crushed to particle size distribution similar to LCZ696

SMILES | mAP ([1]; 30 mg/kg gavage once per day) | mLVP ([1]; 30 mg/kg gavage once per day) | improvement effect on mAP and mLVP / effect on lowering blood pressure compared with untreated animal group [1] | Ejection fraction [2, 7] | Heart rate [2, 7] | Myocardial fibrosis [2, 7] | Thickness of heart wall [2, 7] | other results
CCOC(=O)[C@H](C)C[C@@H](Cc1ccc(-c2ccccc2)cc1)NC(=O)CCC(=O)O [AHU377 calcium salt, AHU377 (Sacubitril, CAS: 149709-62-6)] | 104 mmHg | 63 mmHg | not significant | 53.3% | 378.9 beats/min | 54.88% | 0.137 cm | 
CCCCc1nc(Cl)c(C(=O)O)n1Cc1ccc(-c2ccccc2-c2nnn[nH]2)cc1 [EXP3174] | 106 mmHg | 61 mmHg | not significant | 47.9% | 427.8 beats/min | 62.89% | 0.136 cm | bioavailability [3]: low bioavailability
CCCCC(=O)N(Cc1ccc(-c2ccccc2-c2nnn[n-]2)cc1)[C@H](C(=O)[O-])C(C)C.CCOC(=O)[C@H](C)C[C@@H](Cc1ccc(-c2ccccc2)cc1)NC(=O)CCC(=O)[O-].O.[Na+].[Na+].[Na+] [LCZ696] |  |  |  |  |  |  |  | mAP ([1]; 68 mg/kg gavage once per day): 78 mmHg; mLVP ([1]; 68 mg/kg gavage once per day): 44 mmHg; Ejection fraction [2, 8]: 70.6%; Heart rate [2, 8]: 412.9 beats/min; Myocardial fibrosis [2, 8]: 11.51%; state of test samples at the end of the hygroscopicity experiment ([4]; RH 75% and RH 85%, end of experiment): completely deliquescent; water content, RH 75% Day 0 ([4]; RH 75%, Day 0, plain sample): 4.9%; water content, RH 85% Day 0 ([4]; RH 85%, Day 0, plain sample): 4.9%; electrostatic phenomenon of powder ([5]; powder property test): electrostatic phenomenon; flowability (in words) ([5]; powder property test): hardly flowable; Angle of repose [5, 9]: 57.35 °; Bulk density [5, 9]: 0.527 g/mL; reduction of hospitalization rate of patients with heart failure [6]: 21%
